Results as given in ChEMBL document CHEMBL1137211, “Inhibitors of phenylethanolamine N-methyltransferase that are predicted to penetrate the blood-brain barrier: design, synthesis, and evaluation of 3-fluoromethyl-7-(N-substituted aminosulfonyl)-1,2,3,4-tetrahydroisoquinolines that possess low affinity toward the alpha2-adrenoceptor” (J Med Chem, 2004).

How the values were obtained:
[1] = molecular target: T1, Adrenergic receptor alpha-2 (Rattus norvegicus, UniProt P22086+P19328+P22909); test: Inhibition of [3H]clonidine binding to rat Alpha2 adrenoceptor; assay type: protein assay
T1 sequence (P22086 whole entry): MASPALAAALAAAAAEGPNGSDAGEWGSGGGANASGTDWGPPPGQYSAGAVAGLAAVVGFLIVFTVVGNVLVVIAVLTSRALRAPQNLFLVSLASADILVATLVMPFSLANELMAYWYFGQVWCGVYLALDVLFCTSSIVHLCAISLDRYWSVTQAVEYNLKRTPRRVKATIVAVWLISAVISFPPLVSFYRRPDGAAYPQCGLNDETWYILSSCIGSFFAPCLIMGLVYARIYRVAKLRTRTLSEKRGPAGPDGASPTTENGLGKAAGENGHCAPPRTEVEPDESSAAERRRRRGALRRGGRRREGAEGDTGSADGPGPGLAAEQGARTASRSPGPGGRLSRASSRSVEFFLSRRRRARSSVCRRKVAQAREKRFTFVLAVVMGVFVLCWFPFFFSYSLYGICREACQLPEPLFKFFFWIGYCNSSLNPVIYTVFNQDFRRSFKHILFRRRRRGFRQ
T1 sequence (P19328 whole entry): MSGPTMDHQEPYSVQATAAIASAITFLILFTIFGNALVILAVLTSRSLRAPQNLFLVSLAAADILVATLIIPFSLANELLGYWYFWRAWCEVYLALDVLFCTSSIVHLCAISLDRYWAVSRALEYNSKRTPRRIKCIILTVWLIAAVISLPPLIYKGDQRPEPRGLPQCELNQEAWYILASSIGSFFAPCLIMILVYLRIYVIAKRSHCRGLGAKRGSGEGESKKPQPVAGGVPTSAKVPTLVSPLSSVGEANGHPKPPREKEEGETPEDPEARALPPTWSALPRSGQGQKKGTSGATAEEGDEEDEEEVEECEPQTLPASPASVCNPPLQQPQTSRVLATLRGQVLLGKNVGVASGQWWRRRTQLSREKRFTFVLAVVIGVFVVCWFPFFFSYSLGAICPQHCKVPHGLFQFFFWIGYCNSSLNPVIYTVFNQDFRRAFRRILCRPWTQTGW
T1 sequence (P22909 whole entry): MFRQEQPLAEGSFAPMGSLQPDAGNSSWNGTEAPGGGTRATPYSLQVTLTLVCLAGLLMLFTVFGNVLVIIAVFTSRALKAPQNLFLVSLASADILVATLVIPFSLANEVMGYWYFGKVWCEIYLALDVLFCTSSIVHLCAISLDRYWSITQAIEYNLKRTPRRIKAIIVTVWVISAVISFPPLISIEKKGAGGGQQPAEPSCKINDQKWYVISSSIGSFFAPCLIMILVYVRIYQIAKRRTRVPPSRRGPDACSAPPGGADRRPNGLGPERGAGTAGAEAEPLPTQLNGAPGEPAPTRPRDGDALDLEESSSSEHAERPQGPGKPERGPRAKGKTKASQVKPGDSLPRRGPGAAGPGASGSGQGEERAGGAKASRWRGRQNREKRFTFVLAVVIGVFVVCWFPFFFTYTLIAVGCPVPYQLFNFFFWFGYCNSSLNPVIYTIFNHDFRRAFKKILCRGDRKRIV

[2] = molecular target: T2, Phenylethanolamine N-methyltransferase (Homo sapiens, UniProt P11086)
T2 sequence (P11086 whole entry): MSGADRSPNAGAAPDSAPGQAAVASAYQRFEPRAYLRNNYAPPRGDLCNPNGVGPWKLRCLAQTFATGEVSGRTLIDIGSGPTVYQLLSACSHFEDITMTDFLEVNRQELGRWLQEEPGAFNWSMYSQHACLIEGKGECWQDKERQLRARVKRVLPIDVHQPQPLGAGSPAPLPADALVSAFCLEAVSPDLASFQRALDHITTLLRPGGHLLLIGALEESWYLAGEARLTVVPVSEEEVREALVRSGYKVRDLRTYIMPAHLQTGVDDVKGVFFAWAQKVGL
Description: Inhibition of [3H]methyl-AdoMet binding to human phenylethanolamine N-methyl-transferase expressed in Escherichia coli BL21

Homo sapiens = organism: Homo sapiens; test: Ratio of Ki for alpha-2-adrenoceptor to that of PNMT was determined

O=S(=O)(NC1CCc2ccccc2C1)c1ccc2c(c1)CNC(CF)C2 (stereo not given)
Ki [1]: 1.3 µM

COCCCNS(=O)(=O)c1ccc2c(c1)CNC(CF)C2 (stereo not given)
Ki [1]: 750 µM

O=S(=O)(NCCCC(F)(F)F)c1ccc2c(c1)CNC(CF)C2 (stereo not given)
Ki [1]: 350 µM

O=S(=O)(NCC(F)(F)F)c1ccc2c(c1)CNC(CF)C2 (stereo not given)
Ki [1]: 1200 µM

Clc1ccc2c(c1Cl)CNCC2
Ki [1]: 0.02 µM

O=S(=O)(Nc1ccc(Cl)cc1)c1ccc2c(c1)CNC(CF)C2 (stereo not given)
Ki [1]: 140 µM

O=S(=O)(NCCCCc1ccccc1)c1ccc2c(c1)CNC(CF)C2 (stereo not given)
Ki [1]: 6.8 µM

CCCNS(=O)(=O)c1ccc2c(c1)CNC(CF)C2 (stereo not given)
Ki [1]: 610 µM

O=S(=O)(c1ccc2c(c1)CNC(CF)C2)N1CCCCC1 (stereo not given)
Ki [1]: 820 µM

CC(C)NS(=O)(=O)c1ccc2c(c1)CNC(CF)C2 (stereo not given)
Ki [1]: 580 µM

O=S(=O)(Nc1cccc(Cl)c1)c1ccc2c(c1)CNC(CF)C2 (stereo not given)
Ki [1]: > 1000 µM
Ki [2]: 890 µM
Selectivity (Homo sapiens): > 1.1

O=S(=O)(Nc1ccc(F)cc1)c1ccc2c(c1)CNC(CF)C2 (stereo not given)
Ki [1]: 86 µM

O=[N+]([O-])c1cccc(NS(=O)(=O)c2ccc3c(c2)CNC(CF)C3)c1 (stereo not given)
Ki [1]: > 1000 µM
Ki [2]: 250 µM
Selectivity (Homo sapiens): > 4

CCCCNS(=O)(=O)c1ccc2c(c1)CNC(CF)C2 (stereo not given)
Ki [1]: 260 µM

CCNS(=O)(=O)c1ccc2c(c1)CNC(CF)C2 (stereo not given)
Ki [1]: 550 µM

O=S(=O)(NCCc1ccccc1)c1ccc2c(c1)CNC(CF)C2 (stereo not given)
Ki [1]: 58 µM

O=S(=O)(Nc1ccc(O)cc1)c1ccc2c(c1)CNC(CF)C2 (stereo not given)
Ki [1]: 280 µM

O=S(=O)(Nc1ccc2ccccc2c1)c1ccc2c(c1)CNC(CF)C2 (stereo not given)
Ki [1]: 12 µM

O=S(=O)(NC12CC3CC(CC(C3)C1)C2)c1ccc2c(c1)CNC(CF)C2 (stereo not given)
Ki [1]: 100 µM

O=[N+]([O-])c1ccc(NS(=O)(=O)c2ccc3c(c2)CNC(CF)C3)cc1 (stereo not given)
Ki [1]: > 1000 µM

COCCNS(=O)(=O)c1ccc2c(c1)CNC(CF)C2 (stereo not given)
Ki [1]: 430 µM

O=S(=O)(NCCC(F)(F)F)c1ccc2c(c1)CNC(CF)C2 (stereo not given)
Ki [1]: 660 µM

O=S(=O)(c1ccc2c(c1)CNC(CF)C2)N1CCOCC1 (stereo not given)
Ki [1]: 2100 µM

CCOCCCNS(=O)(=O)c1ccc2c(c1)CNC(CF)C2 (stereo not given)
Ki [1]: 350 µM

CCOCCNS(=O)(=O)c1ccc2c(c1)CNC(CF)C2 (stereo not given)
Ki [1]: 440 µM

O=S(=O)(c1ccc2c(c1)CNC(CF)C2)N1CCSCC1 (stereo not given)
Ki [1]: 190 µM
